Experimental data: the supplement of paper PMC3493320

test system: NCI-H295R; experiment: IC50 (antiproliferative, ATP content); details: 48 h
Outline: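 Adrenocortical carcinoma cells in 1536-well plates (1500 per well, serum-free DMEM plus ITS, overnight culture) were exposed for 48 h at 37 °C, 5% CO2 to pin-transferred compounds at 8 final concentrations ranging 0.6 nM to 46 µM. ATP content was then read as CellTiter-Glo luminescence and normalised to vehicle and positive-control wells. The IC50 came from logistic curve fits, and any compound lacking a concentration response was recorded as above the top dose.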

Structure (SMILES) | IC50 [µM]
CCC1OC(=O)C[C@@H](O)[C@H](C)[C@@H](O[C@@H]2O[C@H](C)C[C@H](N(C)C)[C@H]2O)[C@@H](CC=O)C[C@@H](C)C(=O)/C=C/[C@]2(C)OC2C1C (stereo partly specified) | > 46
CN1CCC(OC(c2ccccc2)c2ccccc2)CC1.Cl | > 46
O=C(O)/C=C/c1ccccc1 | > 46
S=C=Nc1ccc(N=C=S)cc1 | > 46
CCCOC(=O)c1ccc(N)cc1 | > 46
CC(=O)O[C@@H]3C\C4=C\C[C@@H]2[C@H](CC[C@]1(C)C(=O)CC[C@H]12)[C@@]4(C)CC3 | > 46
CCc1cc(C(N)=S)ccn1 | > 46
CCCCCCOC(=O)c1cccnc1 | > 46
Nc1ccc(S(=O)(=O)Nc2ccc(Cl)nn2)cc1 | > 46
N=C(N)NCC1COC2(CCCCC2)O1.N=C(N)NCC1COC2(CCCCC2)O1.O=S(=O)(O)O (stereo unspecified) | > 46
Cc1ncc(C[n+]2csc(CCO)c2C)c(N)n1.Cl.[Cl-] | > 46
CN(C)[C@@H]1C(O)=C(C(N)=O)C(=O)[C@@]2(O)C(O)=C3C(=O)c4c(O)cccc4[C@@](C)(O)[C@H]3[C@H](O)[C@@H]12.O.O | > 46
O=C1OC(c2ccc(O)cc2)(c2ccc(O)cc2)c2ccccc21 | > 46
CN(Cc1ccccc1)Cc1ccccc1 | > 46
COP(=O)(OC)OC=C(Cl)Cl | > 46
CC1(C)CO[C@@H](CC(=O)O)CN1 | > 46
Cc1cccc(C)c1NC(=O)c1ccccc1C(=O)O | > 46
CC[C@H]1OC(=O)[C@H](C)C(=O)[C@H](C)[C@@H](O[C@@H]2O[C@H](C)C[C@H](N(C)C)[C@H]2O)[C@](C)(OC)C[C@@H](C)C(=O)[C@H](C)[C@H]2N(CCCCn3cnc(-c4cccnc4)c3)C(=O)O[C@]12C | > 46
Oc1ccc(Cl)cc1 | > 46
COc1ccc2c3c1O[C@H]1C[C@@H](O)C=C[C@@]31CCN(C)C2 | > 46
Nc1ncnc2c1ncn2[C@H]1CC[C@@H](CO)O1 | > 46
C[C@H]1O[C@H](OC[C@@H]2O[C@H](Oc3c(-c4ccc(OCCO)c(OCCO)c4)oc4cc(OCCO)cc(O)c4c3=O)[C@@H](O)[C@H](O)[C@H]2O)[C@@H](O)[C@@H](O)[C@@H]1O | > 46
OC(O)C(Cl)(Cl)Cl | > 46
CCC1(c2cccc(O)c2)CCCCN(C)C1.Cl (stereo unspecified) | > 46
CN(N=O)C(=O)N[C@@H]1[C@@H](O)[C@H](O)[C@@H](CO)O[C@@H]1O | > 46
NCCNCCNCCNCCN | > 46

Structure (SMILES) | IC50 [µM]
c1csc(C2(N3CCCCC3)CCCCC2)c1 | > 46
O=c1[nH]c(=O)n([C@H]2C[C@H](O)[C@@H](CO)O2)cc1C(F)(F)F | > 46
Cc1ccccc1CNc1ncnc2c1ncn2[C@@H]1O[C@H](CO)[C@@H](O)[C@H]1O | > 46
CC(=O)N[C@H]1[C@@H](O[C@@H]2C(C(=O)[O-])C[C@@H](O[C@H]3[C@H](C)[C@@H](NS(=O)(=O)O)[C@@H](OC4C(C(=O)[O-])O[C@@H](OC5[C@H]6CO[C@H](O6)[C@H](NS(=O)(=O)[O-])[C@H]5O)[C@H](O)[C@H]4O)O[C@@H]3COS(=O)(=O)O)[C@H](O)[C@H]2O)O[C@H](COS(=O)(=O)O)[C@@H](O[C@@H]2OC(C(=O)[O-])=C[C@H](O)[C@H]2OS(=O)(=O)O)[C@@H]1O.[Na+].[Na+].[Na+].[Na+] (stereo partly specified) | > 46
O=C1c2ccccc2-c2n[nH]c3cccc1c23 | > 46
CCOC(=S)SSC(=S)OCC | > 46
[Na+].[Na+].[O-]C(=O)c4ccccc4C=2c3cc(Br)c([O-])c(Br)c3OC=1C=2\C=C(\Br)C(=O)C=1Br | > 46
Cc1c(-c2ccccc2)oc2c(C(=O)OCCN3CCCCC3)cccc2c1=O.Cl | > 46
CN1CCC(=C2c3ccccc3CCc3sccc32)CC1 | > 46
O=P([O-])(O)C(Cl)(Cl)P(=O)([O-])O.[Na+].[Na+] | > 46
O=C(O)CN1C(=O)c2cccc3cccc(c23)C1=O | > 46
COc1ccc2c3c1O[C@H]1[C@@H](O)C=C[C@H]4[C@@H](C2)NCC[C@@]341 | > 46
O=C1c2c(O)cccc2Cc2cccc(O)c21 | > 46
O[C@]([C@@H]1CSCN1)=O | > 46
C[N+]1(C)[C@@H]2CC[C@H]1C[C@@H](OC(=O)C(CO)c1ccccc1)C2.O=[N+]([O-])[O-] (stereo partly specified) | > 46
CN1CCCC(CN2c3ccccc3Sc3ccccc32)C1 (stereo unspecified) | > 46
CNC(=NC#N)NCCSCc1nc[nH]c1C | > 46
NC(=O)c1ccccc1O | > 46
Cc1ccc(S(=O)(=O)NC(=O)NN2CCCCCC2)cc1 | > 46
N[C@@H](C\C1=C\N=C/N1)C(O)=O.Cl | > 46
CCOC(=O)[C@@](C)(N)Cc1ccc(O)c(O)c1.Cl | > 46
CCn1cc(C(=O)O)c(=O)c2cc(F)c(N3CCNCC3)cc21 | > 46
CC(CN1c2ccccc2Sc2cccnc21)N(C)C.Cl (stereo unspecified) | > 46
CCCCCCCC/C=C\CCCCCCCC(=O)O | > 46
CCCOC(=O)c1ccccc1 | > 46
Cc1ccccc1-n1c(C)nc2ccccc2c1=O | > 46

Structure (SMILES) | IC50 [µM]
Cc1ccccc1N1C(=O)c2cc(S(N)(=O)=O)c(Cl)cc2NC1C (stereo unspecified) | > 46
CC(=O)[C@@]1(O)CC[C@H]2[C@@H]3CCC4=CC(=O)CC[C@]4(C)[C@H]3CC[C@@]21C | > 46
CCC1C(C)=NN=C(c2ccc(OC)c(OC)c2)c2cc(OC)c(OC)cc21 (stereo unspecified) | > 46
Cl.O=C(O)c1cn(-c2ccc(F)cc2)c2cc(N3CCNCC3)c(F)cc2c1=O | > 46
CCN(CC)CCNC(=O)COc1ccc(Cl)cc1 | > 46
[C@]43(\C(=C2\C(c1c(O)cccc1[C@](C2C[C@H]3[C@@H](/C(=C(\C4=O)C(NCN5CCCC5)=O)O)N(C)C)(O)C)=O)O)O (stereo partly specified) | > 46
Cn1cnc2c1c(=O)[nH]c(=O)n2C | > 46
CCCCCCCCCCCCSCCOCCO | > 46
O[C@@H]1CO[C@H]2[C@@H]1OC[C@@H]2O | > 46
CCCCNC(=O)NS(=O)(=O)c1ccc(C)cc1 | > 46
CCC(=O)O[C@H]1CC[C@H]2[C@@H]3CCC4=CC(=O)CC[C@]4(C)[C@H]3CC[C@]12C | > 46
C[C@H](N)C(=O)N[C@@H](C)P(=O)(O)O | > 46
CCCC(=O)O[C@]1(C(=O)CO)CC[C@H]2[C@@H]3CCC4=CC(=O)CC[C@]4(C)[C@H]3[C@@H](O)C[C@@]21C | > 46
O=C(O)C(Cl)Cl | > 46
O=[C@](C)[C@@H]3[C@](CC2)(C)[C@](CC3)([H])[C@@]1([H])[C@@]2([H])[C@](CC[C@H](O)C4)(C)C4=CC1 | > 46
C\C1=C\N(C(=O)NC1=O)[C@H]2\C=C/[C@@H](CO)O2 | > 46
CC[N+](C)(CC)CCOC(=O)C1c2ccccc2Oc2ccccc21.[Br-] | > 46
CCN(CC)CCC(=O)N1c2ccccc2Sc2ccc(C(F)(F)F)cc21 | > 46
CC(=O)Nc1ccc(OC(=O)c2ccccc2OC(C)=O)cc1 | > 46
Nc1ccncc1N | > 46
CC(C)COCC(CN(Cc1ccccc1)c1ccccc1)N1CCCC1 (stereo unspecified) | > 46
CC(C)(Oc1ccc(Cl)cc1)C(=O)O | > 46
C=C1C[C@H]2[C@@H]3C=C(C)C4=CC(=O)CC[C@]4(C)[C@H]3CC[C@]2(C)[C@@]1(OC(C)=O)C(C)=O | > 46
NNCCc1ccccc1.O=S(=O)(O)O | > 46
Cc1noc(NS(=O)(=O)c2ccc(N)cc2)c1C | > 46
O=C(O)c1cc(-c2ccccc2)nc2ccccc12 | > 46

Structure (SMILES) | IC50 [µM]
Nc1ncnc(Nc2ccccc2)n1 | > 46
CCC1(c2ccccc2)C(=O)NC(=O)NC1=O | > 46
Nc1ncnc2c1ncn2[C@@H]1O[C@H](CO)[C@@H](O)[C@H]1O | > 46
CCCCCOC(=O)Nc1nc(=O)n([C@@H]2O[C@H](C)[C@@H](O)[C@H]2O)cc1F | > 46
Nc1nc(/C(=C/CC(=O)O)C(=O)N[C@@H]2C(=O)N3C(C(=O)O)=CCS[C@H]23)cs1 | > 46
NC(=O)c1cn(Cc2c(F)cccc2F)nn1 | > 46
CCC1(CC)C(=O)NC(=O)NC1=O | > 46
CCCc1nn(C)c2c(=O)[nH]c(-c3cc(S(=O)(=O)N4CCN(C)CC4)ccc3OCC)nc12.O=C(O)CC(O)(CC(=O)O)C(=O)O | > 46
O=C(/C=C/c1cccc(F)c1)NC1CC1 | > 46
O=C(O[C@@H]5C4CCN(C5)CC4)N2[C@@H]([C@]3=CC=CC=C3)C1=CC=CC=C1CC2.Cl | > 46
CC(=O)OO | > 46
Cl.O=C(CCCN1CCC(O)(c2cccc(C(F)(F)F)c2)CC1)c1ccc(F)cc1 | > 46
CCSc1ccc2c(c1)N(CCCN1CCN(C)CC1)c1ccccc1S2.O=C(O)CC(O)C(=O)O.O=C(O)CC(O)C(=O)O | > 46
CC(C)(C)c1ccc(O)cc1 | > 46
CC(C)(C)NCC(O)c1cc(Cl)c(N)c(C(F)(F)F)c1.Cl (stereo unspecified) | > 46
Cc1cc(N)c2ccccc2[n+]1CCCCCCCCCC[n+]1c(C)cc(N)c2ccccc21.[Cl-].[Cl-] | > 46
N#CCCN.N#CCCN.O=C(O)/C=C/C(=O)O | > 46
C[C@H]1CCC[C@H](O)CCCCCc2cc(O)cc(O)c2C(=O)O1 | > 46
CCCCN1C[C@H](O)[C@@H](O)[C@H](O)[C@H]1CO | > 46
CCOC(=O)c1cccc(N)c1.CS(=O)(=O)O | > 46
COc1cc(C(=S)N2CCOCC2)ccc1O | > 46
CCC(=O)c1ccc2c(c1)N(CCCN(C)C)c1ccccc1S2.Cl | > 46
C[n+]1ccccc1C=NO.[Cl-] | > 46
